Data: patent publication US9381255B2, “Formulations comprising T3 nanoparticles” (Avant Garde Therapeutics and Technologies LLC, priority 2009, dated 2016)

Assay: Blood levels of T3 after intraperitoneal administration in mice
Type: in vivo
Procedure: This T3-nanoparticle is administered intraperitoneally in mice.

In the case of `N[C@@H](Cc1cc(I)c(Oc2ccc(O)c(I)c2)c(I)c1)C(=O)O` [free T3, triiodothyronine], the T3 blood levels (intraperitoneal injection, FIG. 8B) is reported as “increased T3 blood levels which were followed by a subsequent leveling off” and the “amount of T3 remaining in the blood over time” value (intraperitoneal, FIG. 8A) is reported as “A lesser amount of T3 remains over time”.
